From patent US5688913A, “CS-1 peptidomimetics, compositions and methods of using the same” (Cytel Corporation, priority 1995, dated 1997)
Numbered stars: 1 amine (or outer) side, 2 acyl side, 3 side chain; on linkers, the order of the positions; unused ones are H or OH. Square brackets hold non-standard residues; d marks the D form. Peptide text beside a SMILES is read from it. * marks the point of attachment. Quinoline3carbonyl = O=C(c1cnc2ccccc2c1)*; Benzenesulfonyl = O=S(=O)(c1ccccc1)*; Acetyl(3-pyridyl) = O=C(Cc1cccnc1)*; Pyrazinecarbonyl = O=C(c1cnccn1)*; Quinaldoyl = O=C(c1ccc2ccccc2n1)*; Brosyl = O=S(=O)(c1ccc(Br)cc1)*; X15 = O=S(=O)(c1cccc2cccnc12)*; Nicotinoyl = O=C(c1cccnc1)*; X19 = O=C(Cc1ccc(Br)cc1)*; Piperidide = C1CCN(*)CC1; Pyrrolidide = C1CCN(*)C1; Cbz = O=C(OCc1ccccc1)*; NHDecyl = CCCCCCCCCCN*; PhAc = O=C(Cc1ccccc1)*; X14 = O=C(c1cc[nH]n1)*; CO = O=C([*:1])[*:2]; Bz = O=C(c1ccccc1)*; NHPh = c1ccc(N*)cc1; NHBu = CCCCN*

Target: VLA-4 (Homo sapiens, UniProt P05556+P13612)
Sequence (P13612 34-1032): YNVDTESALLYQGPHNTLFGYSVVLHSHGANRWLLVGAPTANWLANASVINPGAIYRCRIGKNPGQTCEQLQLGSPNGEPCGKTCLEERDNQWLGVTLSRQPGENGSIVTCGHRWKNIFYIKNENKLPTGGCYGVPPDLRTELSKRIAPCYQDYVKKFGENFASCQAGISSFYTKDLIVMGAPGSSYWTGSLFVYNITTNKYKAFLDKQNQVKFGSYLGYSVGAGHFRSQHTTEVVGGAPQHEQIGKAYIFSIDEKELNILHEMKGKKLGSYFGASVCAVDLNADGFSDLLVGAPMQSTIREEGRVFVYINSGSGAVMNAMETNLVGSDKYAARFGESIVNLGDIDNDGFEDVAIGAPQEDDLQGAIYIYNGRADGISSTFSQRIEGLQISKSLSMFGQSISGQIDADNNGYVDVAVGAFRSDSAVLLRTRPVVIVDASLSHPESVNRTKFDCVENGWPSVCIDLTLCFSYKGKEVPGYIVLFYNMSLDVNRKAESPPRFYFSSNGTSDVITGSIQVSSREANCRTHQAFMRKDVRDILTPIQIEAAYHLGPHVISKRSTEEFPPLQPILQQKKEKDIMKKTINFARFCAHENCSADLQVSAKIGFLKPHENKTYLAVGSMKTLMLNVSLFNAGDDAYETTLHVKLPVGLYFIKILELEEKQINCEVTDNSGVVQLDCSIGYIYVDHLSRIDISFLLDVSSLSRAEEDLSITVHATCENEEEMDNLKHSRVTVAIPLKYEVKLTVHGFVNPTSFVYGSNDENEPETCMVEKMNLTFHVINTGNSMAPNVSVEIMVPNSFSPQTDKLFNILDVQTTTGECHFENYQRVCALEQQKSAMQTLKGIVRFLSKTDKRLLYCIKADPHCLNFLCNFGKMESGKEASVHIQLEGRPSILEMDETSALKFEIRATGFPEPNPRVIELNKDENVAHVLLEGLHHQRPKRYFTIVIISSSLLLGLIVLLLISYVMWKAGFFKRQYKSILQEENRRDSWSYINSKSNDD
Sequence (P05556 21-798): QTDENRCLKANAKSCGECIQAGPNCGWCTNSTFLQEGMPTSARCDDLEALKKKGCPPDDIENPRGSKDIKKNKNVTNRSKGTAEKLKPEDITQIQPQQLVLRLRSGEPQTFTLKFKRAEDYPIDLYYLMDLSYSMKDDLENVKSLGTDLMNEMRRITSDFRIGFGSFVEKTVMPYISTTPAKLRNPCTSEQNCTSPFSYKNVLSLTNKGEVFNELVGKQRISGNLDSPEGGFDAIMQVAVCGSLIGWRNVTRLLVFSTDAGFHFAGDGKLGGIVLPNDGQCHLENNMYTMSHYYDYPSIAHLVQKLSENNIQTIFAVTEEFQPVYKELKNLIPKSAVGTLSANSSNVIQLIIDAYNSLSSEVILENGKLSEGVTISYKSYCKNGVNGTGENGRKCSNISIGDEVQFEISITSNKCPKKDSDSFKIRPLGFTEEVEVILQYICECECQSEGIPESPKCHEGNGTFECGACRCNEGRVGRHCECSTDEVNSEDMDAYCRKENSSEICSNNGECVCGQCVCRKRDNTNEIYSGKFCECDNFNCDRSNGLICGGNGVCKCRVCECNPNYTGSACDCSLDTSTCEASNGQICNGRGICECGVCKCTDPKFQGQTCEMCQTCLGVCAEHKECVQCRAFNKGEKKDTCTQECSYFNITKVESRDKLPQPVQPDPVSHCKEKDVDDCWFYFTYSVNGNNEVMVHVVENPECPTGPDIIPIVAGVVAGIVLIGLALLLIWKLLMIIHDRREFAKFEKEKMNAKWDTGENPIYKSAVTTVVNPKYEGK
Experiment: cell-based
Assay type: cell-based
Design: host or cells: Jurkat (human T lymphoblastic line)
Settings: not given
Protocol: Binding inhibition is measured here as a concentration of peptide that inhibits one-half the binding between a standard number of Jurkat cells and a standard amount of CS-1 peptide bound to the surface of a microtiter plate well. Those concentrations are conveniently expressed as IC50 values, smaller numbers indicating a lower concentration required to inhibit 50 percent binding and therefore greater potency. Further specifics of this assay are provided hereinafter.
Jurkat cells (ATCC TIB 152), a human T lymphoblastic line, labeled with ^51 chromium were used to assay in vitro binding inhibition provided by various peptides discussed herein.
The plates were prepared as follows: The 25-mer CS-1 peptide (SEQ ID NO:1) dissolved at 0.5-1 μg/ml in a buffer of 0.1M NaHCO3 at pH 9.5 that also contained 10 μg/ml of bovine serum albumin (BSA) or a conjugate of the CS-1 peptide linked to ovalbumin (CS-1-OVA) dissolved at 1-2.5 μg/ml in the same buffer was used as the substrate. Each well of the microtiter plates was coated with 50 μl of substrate or buffer alone for controls. The wells were permitted to dry out completely and were then rinsed twice with PBS at pH 7.4. Non-specific binding sites of each well were then blocked using 200 μl per well of RPMI/1 percent BSA for two hours at room temperature. Both solid phase-affixed substrates provided similar results.
Jurkat cells (3-5×10^6 cells) were placed into a 15 ml Falcon™ round-bottom tube with a cap. The tube was centrifuged, and the extra medium was then removed.
Two hundred microliters of a ^51 Cr labeling solution were added to the centrifuged cells and maintained in contact with the cells for 90-120 minutes in a warm room. This procedure typically provides about 50,000-100,000 cpm/well with about 80-100 percent cell viability. Longer contact times provide a greater amount of labeling but lower cell viability.
The labeled cells are washed with (i) complete medium, (ii) 1 mM EDTA/PBS and then (iii) RPM1/1 percent BSA free of serum components. The cells are centrifuged after each washing. The cells are finally resuspended in serum-free RPMI/1 percent BSA at a concentration of 1×10^6 viable cells/ml, which provides a concentration that is diluted by one-half in the assay.
Inhibitor peptides are prepared as stock solutions at 20 mg/ml in DMSO in 1.5 ml cryogenic screwcap vials, and were stored at -70° C. Using Flow™ round-bottom or V-bottom microtiter plates, the inhibitor peptides were prepared at twice the assay concentration in RPMI/1 percent BSA at 60 μl well.
Four initial dilutions were typically used.
The ^51 Cr-labeled cells (1×10^6 cells at 60 μl/well) were then admixed with the diluted peptide solutions. The admixtures were maintained at room temperature (about 22° C.) for 30 minutes.
One hundred microliters of each inhibitor peptide/cell admixture were transferred to the substrate-coated wells. This was done in triplicate for each dilution. The resulting plates were incubated for 30 minutes at 37° C. and then washed gently three times with RPMI/1 percent BSA at 200 μl/well. Binding was observed microscopically, particularly after the second wash.
The bound cells were then lysed by the addition of a 0.5 percent solution of sodium dodecylsulfate in water at 100 μ/l well. The resulting solutions were then processed for counting and calculation of IC50 values following usual procedures. Appropriate positive and negative controls were used with each plate so that the results of separate assays could be normalized and compared.
The data of Table 1 are so normalized.

Structure (SMILES) | RELATIVE POTENCY (relative peptide inhibition of VLA-4 binding CS-1)
CC[C@H](C)[C@H](N)C(=O)N[C@@H](CC(C)C)C(=O)N[C@@H](CC(=O)O)C(=O)N[C@H](C(=O)N1CCC[C@H]1C(=O)N[C@H](C(=O)N[C@@H](CC(C)C)C(=O)N[C@@H](CC(=O)O)C(=O)N[C@H](C(=O)N1CCC[C@H]1C(N)=O)C(C)C)[C@@H](C)CC)C(C)C [I L D V P I L D V P free amine amide] (H-ILDVPILDVP-NH2) | 2
CC[C@H](C)[C@H](N)C(=O)N[C@@H](CC(C)C)C(=O)N[C@@H](CC(=O)O)C(=O)N[C@H](C(=O)N1CCC[C@H]1C(=O)O)C(C)C [I L D V P free amine free acid, reference compound] (H-ILDVP-OH) | 1
CC(C)C[C@H](N)C(=O)N[C@@H](CC(=O)O)C(=O)N[C@@H](Cc1ccccc1)C(=O)N1CCCCC1 [L D F Z free amine piperidinamide] (H-Leu-Asp-Phe-Piperidide) | 0
CC(=O)N[C@@H](CC(C)C)C(=O)N[C@@H](CC(=O)O)C(=O)N[C@@H](Cc1ccccc1)C(N)=O [L D F acetyl amide] (Ac-Leu-Asp-Phe-NH2) | < 1
CC(C)C[C@H](N)C(=O)N[C@@H](CC(=O)O)C(=O)N[C@@H](Cc1ccccc1)C(N)=O [L D F free amine amide] (H-Leu-Asp-Phe-NH2) | 0
CC(=O)N[C@@H](CC(C)C)C(=O)N[C@@H](CC(=O)O)C(=O)N[C@H](C(N)=O)C(C)C [L D V acetyl amide, reference compound] (Ac-Leu-Asp-Val-NH2) | 1
CC(C)C[C@H](N)C(=O)N[C@@H](CC(=O)O)C(=O)N[C@H](C(N)=O)C(C)C [L D V free amine amide, reference compound] (H-Leu-Asp-Val-NH2) | 0
CC(=O)N[C@@H](CO)C(=O)N[C@@H](Cc1ccccc1)C(=O)N[C@@H](CC(=O)O)C(=O)N[C@@H](Cc1ccccc1)C(=O)N[C@@H](CO)C(N)=O [S F D F S acetyl amide] (Ac-SFDFS-NH2) | < 1
CC(C)C[C@H](NCc1ccccc1)C(=O)N[C@@H](CC(=O)O)C(=O)N[C@@H](Cc1ccccc1)C(=O)N1CCCCC1 [X L D F Z benzyl piperidinamide] | 6
CC(C)C[C@H](NC(=O)c1ccc2ccccc2n1)C(=O)N[C@@H](CC(=O)O)C(=O)N[C@@H](Cc1ccccc1)C(=O)N1CCC[C@@H]1C(N)=O [X L D F p 2-quinolinecarbonyl amide] (Quinaldoyl-LDF[dP]-NH2) | 4
CC(C)C[C@H](NC(=O)Nc1ccccc1)C(=O)N[C@@H](CC(=O)O)C(=O)N[C@@H](Cc1ccccc1)C(=O)N1CCC[C@@H]1C(N)=O [X L D F p anilinocarbonyl amide] ({NHPh-CO}-LDF[dP]-NH2) | 227

Results, then the compound that gave them:

RELATIVE POTENCY (relative peptide inhibition of VLA-4 binding CS-1) | Structure (SMILES)
9 | CC(C)C[C@H](NC(=O)c1cnccn1)C(=O)N[C@@H](CC(=O)O)C(=O)N[C@@H](Cc1ccccc1)C(=O)N1CCC[C@@H]1C(N)=O [X L D F p 2-pyrazinecarbonyl amide] (Pyrazinecarbonyl-LDF[dP]-NH2)
56 | CC(C)C[C@H](NC(=O)c1cnc2ccccc2c1)C(=O)N[C@@H](CC(=O)O)C(=O)N[C@@H](Cc1ccccc1)C(=O)N1CCC[C@@H]1C(N)=O [X L D F p 3-quinolinecarbonyl amide] (Quinoline3carbonyl-LDF[dP]-NH2)
< 1 | CC(C)C[C@H](NS(=O)(=O)c1ccc(Br)cc1)C(=O)N[C@@H](CC(=O)O)C(=O)N[C@@H](Cc1ccccc1)C(=O)N1CCC[C@@H]1C(N)=O [X L D F p 4-bromophenylsulfonyl amide] (Brosyl-LDF[dP]-NH2)
3 | CC(C)C[C@H](NS(=O)(=O)c1cccc2cccnc12)C(=O)N[C@@H](CC(=O)O)C(=O)N[C@@H](Cc1ccccc1)C(=O)N1CCC[C@@H]1C(N)=O [X L D F p 8-quinolinesulfonyl amide] (X15-LDF[dP]-NH2)
34 | CC(C)C[C@H](NC(=O)OCc1ccccc1)C(=O)N[C@@H](CC(=O)O)C(=O)N[C@@H](Cc1ccccc1)C(=O)N1CCC[C@@H]1C(N)=O [X L D F p benzyloxycarbonyl amide] (Cbz-LDF[dP]-NH2)
3 | CC(C)C[C@H](NC(=O)Cc1ccc(Br)cc1)C(=O)N[C@@H](CC(=O)O)C(=O)N[C@@H](Cc1ccccc1)C(=O)N1CCC[C@@H]1C(N)=O [X L D F p p-bromophenylacetyl amide] (X19-LDF[dP]-NH2)
0 | CC(C)C[C@H](NS(=O)(=O)c1ccccc1)C(=O)N[C@@H](CC(=O)O)C(=O)N[C@@H](Cc1ccccc1)C(=O)N1CCC[C@@H]1C(N)=O [X L D F p phenylsulfonyl amide] (Benzenesulfonyl-LDF[dP]-NH2)
35 | CC(C)C[C@H](NC(=O)c1cc[nH]n1)C(=O)N[C@@H](CC(=O)O)C(=O)N[C@@H](Cc1ccccc1)C(=O)N1CCC[C@@H]1C(N)=O [X L D F p pyrazolecarbonyl amide] (X14-LDF[dP]-NH2; N-terminus assumed)
469 | CC(C)C[C@H](NC(=O)Cc1cccnc1)C(=O)N[C@@H](CC(=O)O)C(=O)N[C@@H](Cc1ccccc1)C(=O)N1CCC[C@@H]1C(N)=O [X L D F p pyridine-3-acetyl amide] ({Acetyl(3-pyridyl)}-LDF[dP]-NH2)
201 | CC(C)C[C@H](NC(=O)c1cccnc1)C(=O)N[C@@H](CC(=O)O)C(=O)N[C@@H](Cc1ccccc1)C(=O)N1CCC[C@@H]1C(N)=O [X L D F p pyridine-3-carbonyl amide] (Nicotinoyl-LDF[dP]-NH2)

Same assay, conditions: normalized IC50 relative to standard peptide of SEQ ID NO:3 (=1); about one-tenth or less of the standard is assigned zero

Structure (SMILES) | RELATIVE POTENCY (relative peptide inhibition of VLA-4 binding CS-1)
CC(C)C[C@H](NC(=O)[C@H](CC(=O)O)NC(=O)Cc1ccccc1)C(=O)N[C@@H](Cc1ccccc1)C(=O)N1CCC[C@@H]1C(N)=O [X D L F p phenylacetyl amide, N-phenylacetyl-Asp-Leu-Phe-D-Pro-NH2, reference compound] (PhAc-DLF[dP]-NH2) | < 1
CCCCCCCCCCNC(=O)[C@@H]1CCCN1C(=O)[C@H](Cc1ccccc1)NC(=O)[C@H](CC(=O)O)NC(=O)[C@H](CC(C)C)NC(=O)Cc1ccccc1 [X L D F P Z phenylacetyl decylamide] (PhAc-LDFP-NHDecyl) | 2
CCCCNC(=O)[C@H](Cc1ccccc1)NC(=O)[C@H](CC(=O)O)NC(=O)[C@H](CC(C)C)NC(=O)Cc1ccccc1 [X L D F Z phenylacetyl n-butylamide] (PhAc-Leu-Asp-Phe-NHBu) | 3
CC(C)C[C@H](NC(=O)Cc1ccccc1)C(=O)N[C@@H](CC(=O)O)C(=O)N[C@@H](Cc1ccccc1)C(=O)N1CCNCC1 [X L D F Z phenylacetyl piperazinamide] | 506
CC(C)C[C@H](NC(=O)Cc1ccccc1)C(=O)N[C@@H](CC(=O)O)C(=O)N[C@@H](Cc1ccccc1)C(=O)N1CCCC1 [X L D F Z phenylacetyl pyrrolidinamide] (PhAc-Leu-Asp-Phe-Pyrrolidide) | 250
CC(C)C[C@H](NC(=O)c1ccccc1)C(=O)N[C@@H](CC(=O)O)C(=O)N[C@@H](Cc1ccccc1)C(=O)N1CCC[C@@H]1C(N)=O [X L D F p benzoyl amide] (Bz-LDF[dP]-NH2) | 75

Same assay, conditions: normalized IC50 relative to standard peptide of SEQ ID NO:3 (=1); about one-tenth or less of the standard is assigned zero; listed as Leu-Asp-Val (LDV) N-free amine C-amide

RELATIVE POTENCY (relative peptide inhibition of VLA-4 binding CS-1) | Structure (SMILES)
zero | CC(C)C[C@H](N)C(=O)N[C@@H](CC(=O)O)C(=O)N[C@H](C(N)=O)C(C)C [L D V free amine amide, reference compound] (H-Leu-Asp-Val-NH2)
